What was measured:
CYP1A2 = biological target: T1, CYP1A2 (Homo sapiens, UniProt P05177); assay: CYP450 inhibition at 10 μM; type: biochemical; settings: probe Phenacetin, 1A2, substrate Phenacetin
T1 sequence (P05177 1-516): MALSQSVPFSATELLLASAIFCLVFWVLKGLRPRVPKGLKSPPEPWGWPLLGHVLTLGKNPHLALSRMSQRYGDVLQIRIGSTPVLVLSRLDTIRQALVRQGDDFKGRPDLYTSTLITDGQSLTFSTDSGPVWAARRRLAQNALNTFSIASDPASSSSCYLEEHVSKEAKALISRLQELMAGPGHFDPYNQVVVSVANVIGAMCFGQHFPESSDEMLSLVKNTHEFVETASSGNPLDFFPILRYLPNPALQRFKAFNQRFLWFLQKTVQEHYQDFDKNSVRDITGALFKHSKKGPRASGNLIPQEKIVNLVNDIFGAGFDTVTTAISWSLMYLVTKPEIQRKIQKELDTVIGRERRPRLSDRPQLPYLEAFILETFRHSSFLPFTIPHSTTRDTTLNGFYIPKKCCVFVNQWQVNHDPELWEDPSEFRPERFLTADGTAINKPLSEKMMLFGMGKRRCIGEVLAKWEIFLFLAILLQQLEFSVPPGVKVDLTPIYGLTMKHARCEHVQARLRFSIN

[1] = test system: allergic sheep challenged with Ascaris suum; assay: Sheep model of allergic bronchoconstriction and airway hyperresponsiveness; type: in vivo
Protocol: Compound 2 was also tested in the sheep model of allergic bronchoconstriction and airway hyperresponsiveness according to the methods disclosed in Abraham, W. M Palm Pharmacol Ther (2008) 21:743-754. Allergic sheep challenged with Ascaris suum show a substantial, biphasic increase in pulmonary resistance (RL). The first four hours are considered the early asthmatic response (EAR); the next four hours (hours 4-8) are considered to be the late asthmatic response (LAR). To assess airway responsiveness (AHR), the cumulative carbachol dose in breath units that increased pulmonary resistance 400% over the post-buffer value (PC 400) was calculated from the dose response curve. One breath unit was defined as one breath of a 1% w/v carbachol solution. A pre-challenge PC 400 was obtained 1-3 days before the start of dosing.
Compound 2 was formulated as a micronized powder suspended in 0.5% methylcellulose at a concentration of 6 mg/ml and administered orally at a dose of 30 mg/kg once a day for 4 days, at the same approximate time each day. Sheep were given 30 mg/kg Compound 2 orally daily four days. Two hours after the final dose of Compound 2, the sheep were subjected to an allergen (Ascaris) challenge. Each sheep was restrained in a prone position and its head was immobilized prior to topical anesthesia of the nasal passages. A balloon catheter was advanced through one nostril into the lower esophagus. Each sheep was intubated with a cuffed endotracheal tube through the other nostril. Tracheal and pleural pressures were determined using the endotracheal tube and balloon catheter, respectively. The trans-pulmonary pressure, i.e., the difference between the tracheal and pleural pressures, was measured using a differential pressure transducer catheter system. RL was determined by connecting the distal end of the endotracheal tube to a pneumotachograph. Data were collected from five to ten breaths to a computer and used to calculate RL. Data from the same sheep challenged with Ascaris prior to the initiation of Compound 2 treatment were used to establish baseline values. Monitoring conditions for the control and drug trials were identical.
On the day of challenge and two hours after the final dose of Compound 2, an aerosol of Ascaris suum (82,000 protein nitrogen units/mL) was generated using a nebulizer and delivered to the sheep using a Harvard respirator. RL was determined one hour prior to challenge, immediately following Ascaris challenge, and hourly thereafter for eight hours. Challenge to 4 hours is considered the EAR while 4 to 8 hours is considered the LAR.
Sheep were also challenged with aerosolized carbachol, a cholinergic agonist that has a negative impact on AHR. […]

[2] = Storage stability of anhydrous solid crystalline form (XRPD); type: physicochemical; settings: Form B, ambient conditions for three months
Text: After storage of this solid crystalline form at ambient conditions for three months, the sample was subjected to XRPD analysis again.

CYP3A4 = CYP3A4 (Homo sapiens, UniProt P08684); assay: CYP450 inhibition at 10 μM; type: biochemical
Sequence of CYP3A4 (P08684 whole entry): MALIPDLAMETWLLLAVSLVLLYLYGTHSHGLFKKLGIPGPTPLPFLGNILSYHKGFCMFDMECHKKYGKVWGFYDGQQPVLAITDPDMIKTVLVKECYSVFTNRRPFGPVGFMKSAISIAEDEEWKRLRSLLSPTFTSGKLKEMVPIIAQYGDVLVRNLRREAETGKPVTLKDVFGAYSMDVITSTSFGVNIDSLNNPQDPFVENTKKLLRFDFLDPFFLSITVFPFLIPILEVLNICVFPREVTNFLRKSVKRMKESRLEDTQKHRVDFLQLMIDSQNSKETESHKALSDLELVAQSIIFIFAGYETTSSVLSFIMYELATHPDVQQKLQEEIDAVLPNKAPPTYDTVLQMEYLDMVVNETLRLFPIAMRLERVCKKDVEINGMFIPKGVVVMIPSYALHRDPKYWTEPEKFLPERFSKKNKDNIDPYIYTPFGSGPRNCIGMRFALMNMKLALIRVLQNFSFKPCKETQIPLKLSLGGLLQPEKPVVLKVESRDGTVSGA

beagle dogs = assay: Hepatotoxicity safety profile, serum biomarkers; type: in vivo; settings: for ALP d-5 / ALT d-5 / AST d-5 / GGT d-5: day -5 before dosing; for ALP d5 / ALT d5 / AST d5 / GGT d5: day 5
Protocol: Compound 2 in vehicle (0.5% methylcellulose [400 cps] in deionized water) was administered orally once daily for five consecutive days by gavage once to 3 groups of non-naïve male and female beagle dogs. Each group received one dose level. […] […] The dose volume was 10 ml/kg for all groups. Hepatoxicity was measured via the serum biomarkers of alanine aminotransferease [ALT], aspartate aminotransferase [AST], alkaline phosphastase [ALP] and gamma-glutamyl transferase [GGT] which represent hepatotoxicity or bile duct injury.

[3] = 30 mg/kg orally once a day for 4 days

Compound: C[C@@H](C(=O)Nc1ccnc(-c2cnc(N3CCC[C@H]3C(F)(F)F)nc2)n1)n1cnc2c1c(=O)n(C)c(=O)n2C [Compound 2, (S)-2-(1,3-dimethyl-2,6-dioxo-2,3-dihydro-1H-purin-7(6H)-yl)-N-(2′-((S)-2-(trifluoromethyl)pyrrolidin-1-yl)-[2,5′-bipyrimidin]-4-yl)propanamide]
- inhibition at 10 µM (CYP1A2): 9%
- peak early airway responses [1, 3]: did not affect the peak early airway responses
- protection of late airway responses [1, 3]: 85%
- airway hyperresponsiveness (PC400) ([1]; 30 mg/kg orally, carbachol challenge 24 hours after final dose): reduced the airway hyperresponsiveness to levels similar to those observed in sheep that were not challenged with Ascaris suum
- average LAR (increase in pulmonary resistance) ([1]; treatment trial, 30 mg/kg orally once a day for 4 days): 19±2.3%
- XRPD pattern after storage [2]: matches the original indexed pattern
- inhibition at 10 µM (CYP3A4; probe Midazolam, 3A4, substrate Midazolam): 0%
- inhibition at 10 µM (CYP3A4; probe Testosterone, 3A4, substrate Testosterone): 2.8%
- ALP d-5 (beagle dogs; 30 mg/kg group): 93.0 U/L
- ALT d-5 (beagle dogs; 30 mg/kg group): 19.0 U/L
- AST d-5 (beagle dogs; 30 mg/kg group): 20.0 U/L
- GGT d-5 (beagle dogs; 30 mg/kg group): 0.0 U/L
- ALP d5 (beagle dogs; 30 mg/kg oral once daily): 143.0 U/L
- ALT d5 (beagle dogs; 30 mg/kg oral once daily): 20.0 U/L
- AST d5 (beagle dogs; 30 mg/kg oral once daily): 22.0 U/L
- GGT d5 (beagle dogs; 30 mg/kg oral once daily): 0.0 U/L
- ALP d-5 (beagle dogs; 100 mg/kg group): 120.0 U/L
- ALT d-5 (beagle dogs; 100 mg/kg group): 21.0 U/L
- AST d-5 (beagle dogs; 100 mg/kg group): 20.0 U/L
- GGT d-5 (beagle dogs; 100 mg/kg group): 0.0 U/L
- ALP d5 (beagle dogs; 100 mg/kg oral once daily): 141.0 U/L
- ALT d5 (beagle dogs; 100 mg/kg oral once daily): 19.0 U/L
- AST d5 (beagle dogs; 100 mg/kg oral once daily): 21.0 U/L
- GGT d5 (beagle dogs; 100 mg/kg oral once daily): 0.5 U/L
- ALP d-5 (beagle dogs; 300 mg/kg group): 118.0 U/L
- ALT d-5 (beagle dogs; 300 mg/kg group): 28.0 U/L
- AST d-5 (beagle dogs; 300 mg/kg group): 22.0 U/L
- GGT d-5 (beagle dogs; 300 mg/kg group): 0.0 U/L
- ALP d5 (beagle dogs; 300 mg/kg oral once daily): 101.0 U/L
- ALT d5 (beagle dogs; 300 mg/kg oral once daily): 21.0 U/L
- AST d5 (beagle dogs; 300 mg/kg oral once daily): 22.0 U/L
- GGT d5 (beagle dogs; 300 mg/kg oral once daily): 0.0 U/L
- serum biomarkers of hepatotoxicity (ALT, AST, ALP, GGT) (beagle dogs; beagle dogs, oral once daily for five days): did not elevate the serum biomarkers up to and including a dose of 300 mg/kg
